This note sets out measurements from patent publication US20120238557A1, “AMINOTHIAZINE OR AMINOOXAZINE DERIVATIVE HAVING AMINO LINKER” (SHIONOGI & CO., LTD., priority 2009, published 2012).

Where two headings read alike, the source gives them in different places.

For data set [1], the system named is Neuroblastoma SH-SY5Y cells (SH/APPwt) with human wild-type β-APP excessively expressed. Put plainly: Measurement of β-amyloid (Aβ) production inhibitory effect in cell. Type of data set: cell-based. On the procedure: Neuroblastoma SH-SY5Y cells (SH/APPwt) with human wild-type β-APP excessively expressed therein were prepared at 8×10^5 cells/mL, and 150 μl portions thereof were inoculated into each well of a 96-well culture plate (Falcon). The cells were cultured for 2 hours at 37° C. in a 5% gaseous carbon dioxide incubator. Then, a solution which had been preliminarily prepared by adding and suspending the test compound (DMSO (dimethyl sulfoxide) solution) so as to be 2 μl/50 μl medium was added to the cell sap. Namely, the final DMSO concentration was 1%, and the amount of the cell culture was 200 μl. After the incubation was performed for 24 hours from the addition of the test compound, 100 μl of the culture supernatant was collected from each fraction. The amount of the Aβ in each fraction was measured.
The Aβ amount was measured as follows. 10 μl of a homogeneous time resolved fluorescence (HTRF) measurement reagent (Amyloid β 1-40 peptide; IBA Molecular Holding, S. A.) and 10 μl of the culture supernatant were put into a 384-well half area microplate (black microplate, Costar) and mixed with each other, and then left standing overnight at 4° C. while the light was shielded. Then, the fluorescence intensity (excitation wavelength: 337 nm, measurement wavelength: 620 nm and 665 nm) was measured with a Wallac 1420 multilabel counter (Perkin Elmer life sciences).

For another data set, the target named is T1, hERG (IKr) (Homo sapiens, UniProt Q12809).
T1 construct: expressed in transfected cells; host or cells: HEK293
T1 sequence (Q12809 whole entry): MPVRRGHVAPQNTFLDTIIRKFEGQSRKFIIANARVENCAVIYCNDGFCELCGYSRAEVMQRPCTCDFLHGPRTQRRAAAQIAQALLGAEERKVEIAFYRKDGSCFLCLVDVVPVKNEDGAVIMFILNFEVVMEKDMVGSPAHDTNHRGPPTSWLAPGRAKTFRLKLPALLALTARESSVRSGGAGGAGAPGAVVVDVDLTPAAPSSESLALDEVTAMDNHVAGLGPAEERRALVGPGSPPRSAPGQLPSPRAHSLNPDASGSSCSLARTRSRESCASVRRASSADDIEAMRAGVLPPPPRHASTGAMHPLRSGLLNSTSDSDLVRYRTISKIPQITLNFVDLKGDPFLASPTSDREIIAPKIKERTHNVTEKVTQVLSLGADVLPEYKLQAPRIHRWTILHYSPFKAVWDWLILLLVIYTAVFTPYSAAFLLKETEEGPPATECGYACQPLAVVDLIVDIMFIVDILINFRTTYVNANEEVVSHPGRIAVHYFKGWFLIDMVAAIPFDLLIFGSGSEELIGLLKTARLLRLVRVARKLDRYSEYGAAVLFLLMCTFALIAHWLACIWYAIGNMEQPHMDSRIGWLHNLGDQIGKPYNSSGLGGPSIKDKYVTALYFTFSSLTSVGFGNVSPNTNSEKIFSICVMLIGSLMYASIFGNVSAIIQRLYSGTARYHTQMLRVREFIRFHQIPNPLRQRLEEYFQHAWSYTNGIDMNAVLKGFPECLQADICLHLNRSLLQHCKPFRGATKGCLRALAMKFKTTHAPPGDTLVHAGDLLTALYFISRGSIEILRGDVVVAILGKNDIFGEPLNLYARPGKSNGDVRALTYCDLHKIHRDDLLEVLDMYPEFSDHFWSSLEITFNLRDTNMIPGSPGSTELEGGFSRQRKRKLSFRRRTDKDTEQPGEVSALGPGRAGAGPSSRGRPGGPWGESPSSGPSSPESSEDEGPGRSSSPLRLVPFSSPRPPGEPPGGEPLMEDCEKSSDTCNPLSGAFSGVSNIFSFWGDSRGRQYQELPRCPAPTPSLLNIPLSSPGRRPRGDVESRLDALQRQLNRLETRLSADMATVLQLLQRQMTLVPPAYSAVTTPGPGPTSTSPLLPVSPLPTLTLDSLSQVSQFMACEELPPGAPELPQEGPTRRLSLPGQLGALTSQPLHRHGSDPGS
Put plainly: hERG test. In kind it is cell-based. To be noted: pH 7.4, HEK293 cells expressing hERG channel, whole cell patch clamp, concentration not given, read-out: % inhibition relative to the tail peak current (IKr). The text has this:
For the purpose of assessing risk of an electrocardiogram QT interval prolongation, effects on delayed rectifier K+ current (IKr), which plays an important role in the ventricular repolarization process, was studied using HEK293 cells expressing human ether-a-go-go related gene (hERG) channel.
After a cell was retained at a membrane potential of −80 mV by whole cell patch clamp method using an automated patch clamp system (PatchXpress 7000A, Axon Instruments Inc.), IKr induced by depolarization pulse stimulation at +40 mV for 2 seconds and, further, repolarization pulse stimulation at −50 mV for 2 seconds was recorded. […] From the recording IKr, an absolute value of the tail peak current was measured based on the current value at the resting membrane potential using an analysis software (DataXpress ver.1, Molecular Devices Corporation). Further, the % inhibition relative to the tail peak current before application of the test substance was calculated, and compared with the vehicle-applied group (0.1% dimethyl sulfoxide solution) to assess influence of the test substance on IKr.

Data set [2] addresses T2, CYP3A4 enzyme expressed in Escherichia coli (Homo sapiens, UniProt P08684).
T2 construct: host or cells: Escherichia coli
Put plainly: CYP3A4 fluorescent MBI test. Type of data set: in vitro ADME. To be noted: pre-reaction time 0 or 30 minutes; substrate 7-BFC. On the procedure: The CYP3A4 fluorescent MBI test is a test of investigating enhancement of CYP3A4 inhibition of a compound by a metabolism reaction, and the test was performed using, as CYP3A4 enzyme expressed in Escherichia coli and employing, as an index, a reaction in which 7-benzyloxytrifluoromethylchmarin (7-BFC) is debenzylated by the CYP3A4 enzyme to produce a metabolite, 7-hydroxytrifluoromethylchmarin (HFC) emitting fluorescent light.
The reaction conditions were as follows: substrate, 5.6 μmol/L 7-BFC; pre-reaction time, 0 or 30 minutes; reaction time, 15 minutes; reaction temperature, 25° C. […]
An enzyme in a K-Pi buffer (pH 7.4) and a test drug solution as a pre-reaction solution were added to a 96-well plate at the composition of the pre-reaction, a part of it was transferred to another 96-well plate so that it was 1/10 diluted by a substrate in a K-Pi buffer, NADPH as a co-factor was added to initiate a reaction as an index (without preincubation) and, after a predetermined time of a reaction, acetonitrile/0.5 mol/L Tris(trishydroxyaminomethane)=4/1 was added to stop the reaction. […] For the plate on which each index reaction had been performed, a fluorescent value of 7-HFC which is a metabolite was measured with a fluorescent plate reader. […]

Another data set is described as follows: Solubility test. In kind it is physicochemical. To be noted: JP-I and JP-II media (2% DMSO stock added), aqueous buffer, kinetic from dmso stock, medium (JP-I, JP-II), turbidity after 4 hours. On the procedure: A 2-fold dilution series (12 points) of a 10 mM solution of a test compound in DMSO was added to a medium (JP-I, JP-II) (2%), and solubility was assessed by 3 stages (High; >40 μM, Medium; 3-40 μM, Low; <3 μM) from a turbidity after 4 hours (crystallization information).

The target of the next data set is T3, CYP2C19 (Homo sapiens, UniProt P33261).
T3 construct: enzyme, pooled human hepatic microsome 0.2 mg protein/mL; from tissue; host or cells: pooled human hepatic microsomes
T3 sequence (P33261 whole entry): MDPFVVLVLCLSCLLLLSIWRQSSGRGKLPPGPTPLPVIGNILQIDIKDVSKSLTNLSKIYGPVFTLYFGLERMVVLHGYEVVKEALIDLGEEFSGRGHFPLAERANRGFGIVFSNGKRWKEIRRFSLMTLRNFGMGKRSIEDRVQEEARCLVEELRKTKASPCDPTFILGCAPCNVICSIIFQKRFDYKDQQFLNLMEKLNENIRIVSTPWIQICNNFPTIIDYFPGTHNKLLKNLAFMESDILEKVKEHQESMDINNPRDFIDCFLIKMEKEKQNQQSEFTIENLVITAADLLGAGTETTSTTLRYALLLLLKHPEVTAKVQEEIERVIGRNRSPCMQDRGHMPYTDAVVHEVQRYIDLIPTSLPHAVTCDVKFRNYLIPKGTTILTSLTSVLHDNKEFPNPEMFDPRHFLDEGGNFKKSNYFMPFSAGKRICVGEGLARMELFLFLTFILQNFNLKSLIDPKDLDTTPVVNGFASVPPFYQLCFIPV
Put plainly: CYP inhibition test (CYP2C19). Type of data set: in vitro ADME. To be noted: pooled human hepatic microsome; mephenyloin 4′-hydroxylation. On the procedure:
(§1) Using commercially available pooled human hepatic microsome, and employing, as markers, 7-ethoxyresorufin O-deethylation (CYP1A2), tolbutamide methyl-hydroxylation (CYP2C9), mephenyloin 4′-hydroxylation (CYP2C19), dextromethorphan O-demethylation (CYP2D6), and terfenedine hydroxylation (CYP3A4) as typical substrate metabolism reactions of human main five CYP enzyme forms (CYP1A2, 2C9, 2C19, 2D6, 3A4), an inhibitory degree of each metabolite production amount by a test compound was assessed. […] After the centrifugation at 3000 rpm for 15 minutes, resorufin (CYP1A2 metabolite) in the supernatant was quantified by a fluorescent multilabel counter and tolbutamide hydroxide (CYP2C9 metabolite), mephenyloin 4′ hydroxide (CYP2C19 metabolite), dextrorphan (CYP2D6 metabolite), and terfenadine alcohol (CYP3A4 metabolite) were quantified by LC/MS/MS. Addition of only DMSO being a solvent dissolving a drug to a reaction system was adopted as a control (100%), remaining activity (%) was calculated at each concentration of a test drug added as the solution and IC50 was calculated by reverse presumption by a logistic model using a concentration and an inhibition rate.

The target in the next data set is T4, CYP2C9 (Homo sapiens, UniProt P11712).
T4 construct: enzyme, pooled human hepatic microsome 0.2 mg protein/mL; from tissue; host or cells: pooled human hepatic microsomes
T4 sequence (P11712 whole entry): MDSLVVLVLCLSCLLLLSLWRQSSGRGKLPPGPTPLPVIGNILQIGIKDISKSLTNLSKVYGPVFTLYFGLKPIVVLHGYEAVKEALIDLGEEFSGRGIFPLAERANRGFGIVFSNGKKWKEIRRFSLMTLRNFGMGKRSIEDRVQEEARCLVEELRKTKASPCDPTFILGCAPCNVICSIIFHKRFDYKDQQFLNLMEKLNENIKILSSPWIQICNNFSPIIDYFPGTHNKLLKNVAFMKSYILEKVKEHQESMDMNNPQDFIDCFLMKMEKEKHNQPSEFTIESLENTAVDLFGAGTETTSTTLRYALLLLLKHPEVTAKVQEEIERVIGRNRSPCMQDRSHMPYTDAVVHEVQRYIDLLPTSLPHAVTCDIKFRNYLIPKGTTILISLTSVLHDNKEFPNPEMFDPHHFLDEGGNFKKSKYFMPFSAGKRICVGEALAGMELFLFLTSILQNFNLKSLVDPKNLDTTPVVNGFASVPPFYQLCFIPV
Put plainly: CYP inhibition test (CYP2C9). Type of data set: in vitro ADME. To be noted: pooled human hepatic microsome; tolbutamide methyl-hydroxylation. On the procedure:
as §1

The next data set concerns the target T5, CYP2D6 (Homo sapiens, UniProt P10635).
T5 construct: enzyme, pooled human hepatic microsome 0.2 mg protein/mL; from tissue; host or cells: pooled human hepatic microsomes
Put plainly: CYP inhibition test (CYP2D6). To be noted: pooled human hepatic microsome; dextromethorphan O-demethylation. Type of data set: in vitro ADME. On the procedure: as §1

The next data set deals with T6, CYP3A4 (Homo sapiens, UniProt P08684).
T6 construct: enzyme, pooled human hepatic microsome 0.2 mg protein/mL; from tissue; host or cells: pooled human hepatic microsomes
T6 sequence (P08684 whole entry): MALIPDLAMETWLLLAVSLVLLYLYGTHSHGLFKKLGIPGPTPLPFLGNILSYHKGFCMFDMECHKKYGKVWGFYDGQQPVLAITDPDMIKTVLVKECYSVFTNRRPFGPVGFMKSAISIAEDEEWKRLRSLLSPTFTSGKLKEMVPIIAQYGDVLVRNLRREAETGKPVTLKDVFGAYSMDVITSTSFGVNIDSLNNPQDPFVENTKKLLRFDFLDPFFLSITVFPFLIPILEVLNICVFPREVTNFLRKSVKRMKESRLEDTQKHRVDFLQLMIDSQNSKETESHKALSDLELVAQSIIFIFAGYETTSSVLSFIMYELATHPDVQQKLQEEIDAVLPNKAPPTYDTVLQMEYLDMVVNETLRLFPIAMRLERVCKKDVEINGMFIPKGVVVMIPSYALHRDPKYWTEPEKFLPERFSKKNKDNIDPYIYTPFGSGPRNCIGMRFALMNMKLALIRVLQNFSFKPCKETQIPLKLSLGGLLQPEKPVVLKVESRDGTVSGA
Put plainly: CYP inhibition test (CYP3A4). Type of data set: in vitro ADME. To be noted: pooled human hepatic microsome; terfenedine hydroxylation. As to the method:
as §1

Another data set addresses T7, CYP1A2 (Homo sapiens, UniProt P05177).
T7 construct: enzyme, pooled human hepatic microsome 0.2 mg protein/mL; from tissue; host or cells: pooled human hepatic microsomes
T7 sequence (P05177 1-516): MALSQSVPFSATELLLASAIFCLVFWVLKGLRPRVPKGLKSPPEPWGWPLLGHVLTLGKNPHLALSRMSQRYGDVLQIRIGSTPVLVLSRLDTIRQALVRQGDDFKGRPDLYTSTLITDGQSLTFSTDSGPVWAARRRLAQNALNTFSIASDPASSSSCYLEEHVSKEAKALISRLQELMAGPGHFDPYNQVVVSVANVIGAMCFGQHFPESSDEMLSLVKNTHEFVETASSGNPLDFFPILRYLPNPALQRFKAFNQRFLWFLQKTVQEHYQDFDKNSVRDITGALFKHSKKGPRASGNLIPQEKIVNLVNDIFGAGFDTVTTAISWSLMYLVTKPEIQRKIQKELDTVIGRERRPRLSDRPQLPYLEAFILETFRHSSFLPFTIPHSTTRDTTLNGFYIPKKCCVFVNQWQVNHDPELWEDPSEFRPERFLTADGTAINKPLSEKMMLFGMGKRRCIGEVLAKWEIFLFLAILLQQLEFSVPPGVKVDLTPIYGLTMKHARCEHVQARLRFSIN
Put plainly: CYP inhibition test (CYP1A2). Type of data set: in vitro ADME. To be noted: pooled human hepatic microsome; 7-ethoxyresorufin O-deethylation. As to the method: as §1

Data set [3] in a line: Metabolism stability test. Type of data set: in vitro ADME. To be noted: human liver microsomes 0.5 mg protein/mL, 1 mmol/L NADPH, 37° C., 30 minutes; 0 minute = 100%. As to the method: Using a commercially available pooled human hepatic microsomes, a test compound was reacted for a constant time, a remaining rate was calculated by comparing a reacted sample and an unreacted sample, thereby, a degree of metabolism in liver was assessed.
A reaction was performed (oxidative reaction) at 37° C. for 0 minute or 30 minutes in the presence of 1 mmol/L NADPH in 0.2 mL of a buffer (50 mmol/L Tris-HCl pH 7.4, 150 mmol/L potassium chloride, 10 mmol/L magnesium chloride) containing 0.5 mg protein/mL of human liver microsomes. After the reaction, 50 μL of the reaction solution was added to 100 μL of a methanol/acetonitrile=1/1 (v/v), mixed and centrifuged at 3000 rpm for 15 minutes. The test compound in the supernatant was quantified by LC/MS/MS, and a remaining amount of the test compound after the reaction was calculated, letting a compound amount at 0 minute reaction time to be 100%.

The mark [4] stands for this setting: Aβ production in SH/APPwt cells, by the similar test, read-out: IC50 value.
Setting [5] is: amount needed to inhibit Aβ production by 50%, SH/APPwt cells, 24 hours, Table 3, read-out: IC50.

T5 sequence (P10635 whole entry): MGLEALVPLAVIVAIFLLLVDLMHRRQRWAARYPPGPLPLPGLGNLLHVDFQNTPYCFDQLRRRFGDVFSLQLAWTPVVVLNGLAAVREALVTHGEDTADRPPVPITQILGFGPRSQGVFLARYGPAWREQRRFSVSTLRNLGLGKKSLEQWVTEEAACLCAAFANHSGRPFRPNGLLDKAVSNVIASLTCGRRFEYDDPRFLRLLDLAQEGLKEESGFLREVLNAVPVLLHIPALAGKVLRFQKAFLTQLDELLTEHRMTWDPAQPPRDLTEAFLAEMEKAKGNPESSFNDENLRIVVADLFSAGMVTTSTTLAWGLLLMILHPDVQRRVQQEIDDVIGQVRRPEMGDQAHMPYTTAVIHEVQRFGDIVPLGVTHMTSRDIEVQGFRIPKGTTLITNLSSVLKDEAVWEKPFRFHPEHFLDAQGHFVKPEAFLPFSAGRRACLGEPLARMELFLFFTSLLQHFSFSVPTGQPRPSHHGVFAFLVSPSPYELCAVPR
T2 sequence (P08684 whole entry): as the sequence (P08684 whole entry) above

Take `C[C@@]1(c2cc(Nc3ccncn3)ccc2F)CCSC(N)=N1` [Compound I-1]: the IC50 in [1] (setting [4]) was at most 3000 nM. Also, the inhibition at 10 min on hERG (IKr) was 3.2%.
As to `C[C@@]1(c2cc(Nc3ncccc3C#N)ccc2F)CCOC(N)=N1` [Compound I-3], in data set [2], the “CYP3A4 MBI: difference between IC50 values” is “(−) (when the difference is 3 μM or less, this was defined as (−))”.
Regarding `COc1cccnc1Nc1ccc(F)c([C@]2(C)CCOC(N)=N2)c1` [Compound I-6], in [1] (setting [5]), the IC50 is 16 nM.
Consider `C[C@@]1(c2cc(Nc3ncccc3C#N)ccc2F)C=CSC(N)=N1` [Compound I-9], for which the solubility at 4 h in “Solubility test” was over 40 µM.
As to `C[C@@]1(c2cc(Nc3ncccc3N)ccc2F)CCSC(N)=N1` [Compound I-10], the IC50 is over 21000 nM on CYP2C19; over 21000 nM against CYP2C9; over 21000 nM against CYP2D6; at most 3000 nM in data set [1] (setting [4]); over 21000 nM against CYP3A4; over 21000 nM against CYP1A2.
In the case of `Cc1cccc(Nc2ccc(F)c([C@]3(C)CCSC(N)=N3)c2)n1` [Compound I-12], the IC50 in data set [1] (setting [4]) is at most 3000 nM.
For the compound `C[C@@]1(c2cc(Nc3ncccc3CO)ccc2F)CCSC(N)=N1` [Compound I-16], the IC50 in data set [1] (setting [4]) was at most 3000 nM.
With `COc1cccnc1Nc1ccc(F)c([C@]2(C)CCSC(N)=N2)c1` [Compound I-18], the IC50 in data set [1] (setting [5]) is 11 nM.
As to `COc1ccnc(Nc2ccc(F)c([C@]3(C)CCSC(N)=N3)c2)c1` [Compound I-19], the IC50 in data set [1] (setting [4]) is at most 3000 nM.
`COc1ccc(Nc2ccc(F)c([C@]3(C)CCSC(N)=N3)c2)nc1` [Compound I-20]: the IC50 in data set [1] (setting [4]) is at most 3000 nM.
`COCc1ccc(Nc2ccc(F)c([C@]3(C)CCSC(N)=N3)c2)nc1` [Compound I-23]: the IC50 in data set [1] (setting [4]) is at most 3000 nM.
On the same count and under the same terms, the figure for `CC(C)Oc1cccnc1Nc1ccc(F)c([C@]2(C)CCSC(N)=N2)c1` [Compound I-24] is at most 3000 nM.
`CCCCOC(=O)c1cccnc1Nc1ccc(F)c([C@]2(C)CCOC(N)=N2)c1` [Compound I-25]: the IC50 in data set [1] (setting [4]) was at most 3000 nM.
As to `CC(C)OCc1ccc(Nc2ccc(F)c([C@]3(C)CCSC(N)=N3)c2)nc1` [Compound I-26], in [1] (setting [4]), the IC50 was at most 3000 nM.
Consider `C[C@@]1(c2cccc(Nc3ncccc3C#N)c2)CCSC(N)=N1` [Compound I-33], for which the “remaining amount of the test compound after the reaction” value in data set [3] is recorded as 95%.

The term IC50 denotes the concentration needed to halve the response being measured. For orientation: inhibition means how much of the control response was suppressed. For orientation: solubility means the concentration that dissolves in the medium under given conditions. Low readings indicate a poorly soluble substance, high ones a readily soluble substance.
